Source: patent publication US20240226128A1, “NOVEL COMPOUNDS WITH DUAL INHIBITION ACTIVITY AGAINST SARS-COV-2 CRITICAL ENZYMES RDRP, MPRO AND HUMAN TMPRSS2” (priority 2022, published 2024)

Assays:
SARS-CoV-2 = settings: comparator, FDA approved drug; cited from earlier work
[1] = test system: SARS-CoV-2 (NRC-03-nhCoV strain); test: In vitro anti-SARS-CoV-2 activity of RH 1-23 compounds (Vero-E6 cells, crystal violet); assay type: cell-based
Experimental: The antiviral activity was carried out as previously described. Briefly, 96-well tissue culture plates were seeded with 2.4×10^4 Vero-E6 cells/and incubated overnight in Dulbecco's Modified Eagle's medium (DMEM) containing 10% Fetal Bovine Serum (FBS) and 1% penicillin/streptomycin antibiotic mixture at a humidified 37° C. incubator under 5% CO2. The cells were treated with SARS-CoV-2 (NRC-03-nhCoV strain, accession #EPI_ISL_430820) for viral adsorption, which was further overlaid with 50 μl DMEM containing varying concentrations of the tested compounds. Following incubation at 37° C. and 5% C02 for 72 h, the cells were fixed with 100 μl of 4% paraformaldehyde for 20 min and stained at room temperature with 0.1% crystal violet in distilled water for 15 min. The crystal violet dye was then dissolved in 100 μl methanol and the optical density of the obtained color was measured at 570 nm using Anthos Zenyth 200 rt plate reader (Anthos Labtec Instruments, Heerhugowaard, Netherlands).

SMILES: CC(C)C(=O)OC[C@H]1O[C@@H](n2ccc(NO)nc2=O)[C@H](O)[C@@H]1O [Molnupiravir]
- in vitro antiviral activity against SARS-CoV-2 (SARS-CoV-2): μM range

SMILES: N#C[C@@]1(c2ccc3c(NC(=O)c4ccc(NC(=N)N)cc4)ncnn23)O[C@H](CO)[C@@H](O)[C@H]1O [RH11, (2R,3R,4S,5R)-N-[7-(2-cyano-3,4-dihydroxy-5-hydroxymethyl-tetrahydro-furan-2-yl)-pyrrolo[2,1-f]-[1,2,4]-triazin-4-yl]-4-guanidino-benzamide]
- in vitro antiviral activity against SARS-CoV-2 [1]: nM range

SMILES: CC(C)c1cc(=O)oc2ccc(OC(=O)c3ccc(NC(=N)N)cc3)cc12 [RH12, 4-guanidino-benzoic acid 4-isopropyl-2-oxo-2H-chromen-6-yl ester]
- in vitro antiviral activity against SARS-CoV-2 [1]: nM range
